Measurements reported in PubChem BioAssay AID256 (DTP/NCI, 2004).
Several values for one entry are separate records, joined by “and”; a condition that tells them apart may be missing. Equal values may be shown once. Toxic doses and inconclusive results are not listed. The calls were made as follows: active = survival T/C of 150% or more; inactive = T/C below 125% in these data.

Test system: CD2F1 mice, L1210 leukemia ip, survival T/C
Experiment: NCI In Vivo Anticancer Drug Screen. Data for tumor model L1210 Leukemia (intraperitoneal) in CD2F1 (CDF1) mice
Details: higher = longer survival
Outline: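 Transplantable tumor in mice; compound-treated vs vehicle-treated groups. Read-out = treated/control ratio of the measured endpoint.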

[1] = endpoint: mean survival time, dose: 100.0 mg/kg/injection, schedule: Q01DX009 (ip), vehicle: saline with Tween-80
[2] = endpoint: mean survival time, dose: 200.0 mg/kg/injection, schedule: Q01DX009 (ip), vehicle: saline with Tween-80
[3] = endpoint: mean survival time, dose: 100.0 mg/kg/injection, schedule: Q01DX001 (ip), vehicle: saline with Tween-80
[4] = endpoint: mean survival time, dose: 200.0 mg/kg/injection, schedule: Q01DX001 (ip), vehicle: saline with Tween-80
[5] = endpoint: mean survival time, dose: 400.0 mg/kg/injection, schedule: Q01DX001 (ip), vehicle: saline with Tween-80
[6] = endpoint: mean survival time, dose: 400.0 mg/kg/injection, schedule: Q01DX009 (ip), vehicle: saline with Tween-80

Measured: T/C

O=C(NCCc1c[nH]c2ccccc12)c1cccnc1
inactive: endpoint: mean survival time, dose: 100.0 mg/kg/injection, schedule: Q04DX003 (ip), vehicle: acetone 98 % of control | endpoint: mean survival time, dose: 200.0 mg/kg/injection, schedule: Q04DX003 (ip), vehicle: acetone 96 % of control | endpoint: mean survival time, dose: 400.0 mg/kg/injection, schedule: Q04DX003 (ip), vehicle: acetone 98 % of control

CN(C)C(=S)Nc1ccccc1
inactive: [1] 95 % of control | endpoint: mean survival time, dose: 100.0 mg/kg/injection, schedule: Q04DX003 (ip), vehicle: saline with Tween-80 93 % of control | [2] 95 % of control | endpoint: mean survival time, dose: 200.0 mg/kg/injection, schedule: Q04DX003 (ip), vehicle: saline with Tween-80 90 % of control | endpoint: mean survival time, dose: 400.0 mg/kg/injection, schedule: Q04DX003 (ip), vehicle: saline with Tween-80 88 % of control

C=CCOC(=O)CCN1CC1
inactive: endpoint: mean survival time, dose: 0.5 mg/kg/injection, schedule: Q01DX009 (ip), vehicle: saline with Tween-80 106 % of control | endpoint: mean survival time, dose: 1.0 mg/kg/injection, schedule: Q01DX009 (ip), vehicle: saline with Tween-80 103 % of control | endpoint: mean survival time, dose: 2.0 mg/kg/injection, schedule: Q01DX009 (ip), vehicle: saline with Tween-80 103 % of control

CC(C)C(O)C(C)[N+](=O)[O-] (stereo unspecified)
inactive: endpoint: mean survival time, dose: 25.0 mg/kg/injection, schedule: Q01DX001 (ip), vehicle: saline with Tween-80 86 % of control | endpoint: mean survival time, dose: 50.0 mg/kg/injection, schedule: Q01DX001 (ip), vehicle: saline with Tween-80 96 % of control

CC1CCC(O)C2(C)CC(O)C(C(C)C(=O)O)CC12 (stereo unspecified)
inactive: [3] 92 % of control | [4] 92 % of control | [5] 88 % of control

CC(=O)N(C(C)=O)c1ccc2[nH]c3c(N(C(C)=O)C(C)=O)cccc3c2c1
inactive: endpoint: mean survival time, dose: 100.0 mg/kg/injection, schedule: Q04DX003 (ip), vehicle: Klucel (hydroxypropylcellulose) (HPC) 97 % of control | endpoint: mean survival time, dose: 200.0 mg/kg/injection, schedule: Q04DX003 (ip), vehicle: Klucel (hydroxypropylcellulose) (HPC) 96 % of control | endpoint: mean survival time, dose: 400.0 mg/kg/injection, schedule: Q04DX003 (ip), vehicle: Klucel (hydroxypropylcellulose) (HPC) 97 % of control

S=C(Nc1ccccn1)NC1CC2C=CC1C2 (stereo unspecified)
inactive: [3] 93 % of control | [4] 101 % of control | [5] 108 % of control

OC12CCCCC1(O)CCCC2 (stereo unspecified)
inactive: [3] 100 % of control | [1] 102 % of control | [4] 97 % of control | [2] 102 % of control | [5] 97 % of control | [6] 102 % of control

O=[N+]([O-])c1ccc(N/N=C(\CBr)c2ccccc2)c([N+](=O)[O-])c1
inactive: [3] 101 % of control | [4] 92 % of control | [5] 93 % of control

N=c1c2ncn(C3CCCC3)c2ncn1OCc1ccccc1
inactive: endpoint: mean survival time, dose: 100.0 mg/kg/injection, schedule: Q01DX001 (ip), vehicle: other 98 % of control

O=S(=O)(Nc1c2ccccc2c(NS(=O)(=O)c2ccccc2)c2ccccc12)c1ccccc1
inactive: endpoint: mean survival time, dose: 25.0 mg/kg/injection, schedule: Q01DX001 (ip), vehicle: saline sonified 96 % of control | endpoint: mean survival time, dose: 50.0 mg/kg/injection, schedule: Q01DX001 (ip), vehicle: saline sonified 90 % of control | endpoint: mean survival time, dose: 100.0 mg/kg/injection, schedule: Q01DX001 (ip), vehicle: saline sonified 95 % of control

O=C(O)C1OC(Sc2ncnc3nc[nH]c23)C(O)C(O)C1O (stereo unspecified)
inactive: endpoint: median survival time, dose: 25.0 mg/kg/injection, schedule: Q01DX005 (ip), vehicle: saline 98 % of control | endpoint: median survival time, dose: 50.0 mg/kg/injection, schedule: Q01DX005 (ip), vehicle: saline 108 % of control | endpoint: median survival time, dose: 100.0 mg/kg/injection, schedule: Q01DX005 (ip), vehicle: saline 109 % of control | endpoint: median survival time, dose: 200.0 mg/kg/injection, schedule: Q01DX005 (ip), vehicle: saline 120 % of control and 112 % of control | endpoint: median survival time, dose: 400.0 mg/kg/injection, schedule: Q01DX005 (ip), vehicle: saline 115 % of control

C(=Nc1ccccc1)c1ccccc1C=Nc1ccccc1
inactive: [1] 94 % of control | endpoint: mean survival time, dose: 100.0 mg/kg/injection, schedule: Q04DX003 (ip), vehicle: saline sonified 100 % of control | [2] 92 % of control | endpoint: mean survival time, dose: 200.0 mg/kg/injection, schedule: Q04DX003 (ip), vehicle: saline sonified 100 % of control | [6] 94 % of control | endpoint: mean survival time, dose: 400.0 mg/kg/injection, schedule: Q04DX003 (ip), vehicle: saline sonified 102 % of control
